“Also recorded” adds a separate entry of the source.

Data set [1] relates to everted sacs of rat small intestine (jejunum). In words: Paracellular (lucifer yellow) and transcellular (imipramine) marker permeability across everted gut sac with or without TPGS. In kind it is in vitro ADME. As for the experimental part:
(§1) The everted sac method was used as previously described ([25]). Everted intestinal sacs were prepared by quickly removing the small intestine from starved rats killed under CO2-anesthesia. The jejunum was excised, flushed through several times with saline solution at room temperature and placed immediately into oxygenated buffer solution at 37°C. Then the intestine was gently everted over a steel rod, filled with fresh oxygenated buffer solution and divided into sacs approximately 4.5 cm in length with silk suture. […] At the defined time points sacs were removed and blotted dry. The sacs were cut open and the serosal fluid was drained into small Eppendorf vial to determine the drug concentration. The area of each sac was calculated closely. Each sac was weighed before and after fluid collection to calculate accurately the volume inside the sac.
(§2) The chromatographic data was acquired by Chromgate 3.1 software from Knauer. Analyses were carried out at ambient temperature on a Chromolith Performance RP-18e (100 mm 4.6 mm i.d., Merck) coupled with a Chromolith RP-18e guard cartridge (5.0 mm 4.6 mm i.d., Merck).

Data set [2] has the same test system. Nature of the data set: LDH release of the everted gut sac. The note with it: TPGS 0.1 mg/mL, PEG 0.5% w/v, 90 min. As for the experimental part: The viability and any possible damage of the gut were evaluated by measuring the release of the cytosolic enzyme lactic dehydrogenase (LDH) as an indicator of cell damage ([18]). The LDH activity was determined in the incubation media in the absence or presence of the excipients using LDH-P kit from Kimia pajouhan (Tehran, Iran). The results were calculated as U/L/cm^2 of sac area (1 unit reduces 10^-6 mol pyruvate per min at pH of 7.5). The influence of excipients (using the maximum concentrations) on the viability of gut sac was measured at 30, 60 and 90 min and compared to the control group (without adding any excipient).
In general terms: LDH leaks from cells whose membrane has failed.

The test system is the same in data set [3]. In words: Etoposide mucosal-to-serosal transport across everted gut sac in absence or presence of excipients/P-gp inhibitor. In kind it is in vitro ADME. The conditions noted are these: etoposide 25 μg/mL; verapamil 100 μg/mL, TPGS 0.002-0.1 mg/mL, PEG 400 0.05, 0.1 and 0.5% w/v; compared to control. The procedure:
as §1, §2

For Lucifer yellow, the “Permeability of lucifer yellow” value is given as 9.3 ± 0.03 × 10^-6 cm/s in data set [1] (in absence of TPGS) and 9.65 ± 0.6 × 10^-6 cm/s in data set [1] (in presence of TPGS 0.1 mg/mL).
Take PEG 400: in data set [2], the “LDH release in presence of excipient versus control” value was “not notably changed”. Moreover, the “Effect on absorptive transport/permeability of etoposide (in words)” value in data set [3] was “no effect; also recorded: not affected”.

Source of the values: PMC3813364 (Iranian Journal of Pharmaceutical Research : IJPR, 2013).
